According to patent publication US10806725B2, “Small molecule inhibitors of XBP1 splicing” (GEORGETOWN UNIVERSITY, priority 2011, dated 2020):

How the values were obtained:
Type in all cases: cell-based
[1] = system: antiestrogen resistant LCC9 cells; assay: Crystal violet cell viability assay, antiestrogen resistant LCC9 cells; settings: 72 hours, normalized to vehicle-treated cells, compared with NPPTA
Procedure: To measure cell viability, antiestrogen resistant LCC9 cells were plated in 96-well plastic tissue culture plates at a density of 5×10^3 cells/well. Twenty-four hours after plating, cells were treated with 3-naphthoyl-1,1,1-trifluoroacetone (NPPTA) and the analogs (i.e., Compound JS-011, Compound JS-012, Compound JS-013, Compound JS-014, Compound JS-015, Compound JS-020). After 72 hours, the cell culture media was removed and plates were stained with […] of a solution containing 0.5% crystal violet and 25% methanol, rinsed with deionized water, dried overnight, and resuspended in […] citrate buffer (0.1 M sodium citrate in 50% ethanol) to assess plating efficiency. Intensity of crystal violet staining, assessed at 570 nm and quantified using a Vmax Kinetic Microplate Reader and Softmax software (Molecular Devices Corp., Menlo Park, Calif.), was directly proportional to cell number. Data were normalized to vehicle-treated cells and are presented in FIG. 8 as the mean±SE from representative experiments.

[2] = system: MCF 10A, a non-breast cancer cell line; assay: Crystal violet dose-response cell proliferation assay, MCF 10A control cells; settings: MCF 10A cells; 10 μM, 25 μM or 50 μM for 72 h
Procedure: (§1) Compound Sd-6 was tested in a dose-response assay using different breast cancer cell lines, including MCF7/LCC1, MCF7/LCC9, T47D, and MCF-7. MCF7/LCC1 is an ERα-positive estrogen-independent, antiestrogen-responsive breast cancer cell line. MCF7/LCC9 is an ERα-positive estrogen-independent, antiestrogen-resistant breast cancer cell line. MCF- is an ERα-positive estrogen-dependent, antiestrogen-responsive breast cancer cell line. Cells were first plated in 96-well plastic tissue culture plates (10,000 cells per well). The cells were treated with 500 nM of Compound Sd-6 or the vehicle alone (DMSO) for 48 h. Following treatment, the cells were washed with PBS, stained with a crystal violet staining solution, and allowed to dry for 48-72 hrs. After drying, sodium citrate buffer was added to each well and allowed to incubate for 5 min at room temperature. The absorbance was measured at 450 nm using a microplate reader (Biorad; Hercules, Calif.).
Compound Sd-6 was tested in a dose-response assay using different breast cancer cell lines, including MCF7/LCC1, MCF7/LCC9, T47D, MCF-7, MCF-7/RR, LY2, and MDA-MB-231. MCF 10A, a non-breast cancer cell line, served as the control. The cells were first plated in 96-well plastic tissue culture plates (10,000 cells per well). […] Following treatment, cell proliferation was determined using a crystal violet assay as described in Example 1.

[3] = system: MCF7/LCC9 antiestrogen-resistant breast cancer cells; assay: Crystal violet cell proliferation assay, MCF7/LCC9 cells (combination with antiestrogens); settings: 10 μM Compound Sd-6 combined with 100 nM Faslodex/ICI 182,780 (ICI), 72 h, >1.0 indicates synergistic interaction
Procedure: as §1
(§2) Compound Sd-6 was tested in a dose-response assay using MCF7/LCC1 antiestrogen-responsive breast cancer cells and MCF7/LCC9 antiestrogen-resistant breast cancer cells. Cells were first plated in 96-well plastic tissue culture plates (10,000 cells per well). […] Following treatment, cell proliferation was determined using a crystal violet assay as described above. […]

[4] = system: MCF7/LCC1 antiestrogen-responsive breast cancer cells; assay: Crystal violet cell proliferation assay, MCF7/LCC1 cells (combination with antiestrogens); settings: 72 h, >1.0 indicates synergistic interaction
Procedure: as §1, §2

| SMILES | Inhibition of LCC9 cells (cell viability, crystal violet) [1] | Response of relative cell proliferation to compound [2] | RI value (Sexp/Sobs) for inhibition of cell proliferation [3] | RI value (Sexp/Sobs) for inhibition of cell proliferation ([4]; 10 μM Compound Sd-6 combined with 100 nM Faslodex/ICI 182,780 (ICI)) | RI value (Sexp/Sobs) for inhibition of cell proliferation ([4]; 10 μM Compound Sd-6 combined with 100 nM Tamoxifen (TAM)) |
| --- | --- | --- | --- | --- | --- |
| O=C(CSc1nc(-c2cccnc2)n[nH]1)Nc1ccc(Oc2ccc(Cl)cc2)cc1 [JS-014] | effective, and more potent than NPPTA | – | – | – | – |
| O=C(CSc1nc(-c2cccnc2)n[nH]1)Nc1ccc(Oc2ccc(C(F)(F)F)cc2)cc1 [JS-020] | effective, and more potent than NPPTA | – | – | – | – |
| O=C(CSc1nc(-c2cccnc2)n[nH]1)Nc1ccc(Oc2ccccc2)cc1 [Compound Sd-6] | – | did not respond | 1.27 | 1.44 | 1.82 |
